For assay [1], the system named is invasion of colorectal cancer cells. Briefly: In vivo relative invation (invasion; EV and KITENIN controls, no method described). The conditions noted are these: relative to EV (=1); KIT = KITENIN.
In assay [2] the test system is KAI1 promoter. Nature of the assay: KAI1 promoter luciferase reporter assay in transfected Caco2 cells. The format is cell-based, human. Particulars: Homo sapiens, Caco-2, 16 h, 1 μM compound, 16 hours, transfected Caco2 cells, luciferase activity relative to DMSO control (=1); read-out: Relative KAI promoter activity. In general terms: Reporter assays use an easily measured gene product as a stand-in for the process of interest.

On to `CC(Oc1ccccc1)C(=O)NCC(=O)c1cccnc1` (stereo not shown) [Example 131, N-(2-oxo-2-(pyridin-3-yl)ethyl)-2-phenoxypropanamide], for which, in assay [1], the “In vivo relative invation” value is 1.293. In assay [2], the fold induction at 1 µM came to 1.19.

For the compound `O=C(CNC(=O)c1ccccc1F)c1cccnc1` [Example 132, 2-fluoro-N-(2-oxo-2-(pyridin-3-yl)ethyl)benzamide], the “In vivo relative invation” value in assay [1] was found to be 1.226. Besides, the fold induction at 1 µM in assay [2] is 1.18.

For `O=C(CNC(=O)c1ccc(F)cc1)c1cccnc1` [Example 133, 4-fluoro-N-(2-oxo-2-(pyridin-3-yl)ethyl)benzamide], the “In vivo relative invation” value in assay [1] was determined as 1.32. For the same compound, the fold induction at 1 µM in assay [2] was 1.15.

With `C/C=C/C(=O)NCC(=O)c1cccnc1` [Example 134, (E)-N-(2-oxo-2-(pyridin-3-yl)ethyl)but-2-enamide], the “In vivo relative invation” value in assay [1] came to 1.297. The fold induction at 1 µM in assay [2] was 1.09.

On to `Cc1ccccc1C(=O)NCC(=O)c1cccnc1` [Example 135, 2-methyl-N-(2-oxo-2-(pyridin-3-yl)ethyl)benzamide], for which the “In vivo relative invation” value in assay [1] came to 1.485. For the same compound, the fold induction at 1 µM in assay [2] came out at 1.3.

For the compound `CCC(=O)NCC(=O)c1cccnc1` [Example 136, N-(2-oxo-2-(pyridin-3-yl)ethyl) propionamide], in assay [1], the “In vivo relative invation” value was found to be 1.297. Besides, the fold induction at 1 µM in assay [2] is 1.17.

As to `O=C(CNC(=O)c1ccccc1F)c1ccc(N2CCOCC2)cc1` [Example 137, 2-fluoro-N-(2-(4-morpholinophenyl)-2-oxoethyl)benzamide], the “In vivo relative invation” value in assay [1] was 1.231. In addition, the fold induction at 1 µM in assay [2] stood at 1.19.

Turning to `O=C(CNC(=O)c1ccccc1Cl)c1ccc(N2CCOCC2)cc1` [Example 138, 2-chloro-N-(2-(4-morpholinophenyl)-2-oxoethyl)benzamide], in assay [1], the “In vivo relative invation” value was 1.258. Moreover, the fold induction at 1 µM in assay [2] came to 1.15.

Consider `C/C=C/C(=O)NCC(=O)c1ccc(N2CCOCC2)cc1` [Example 139, (E)-N-(2-(4-morpholinophenyl)-2-oxoethyl)but-2-enamide], for which, in assay [1], the “In vivo relative invation” value turned out to be 1.314. Moreover, the fold induction at 1 µM in assay [2] worked out at 1.01.

Turning to `COc1ccc(C(=O)NCC(=O)c2ccc(N3CCOCC3)cc2)cc1` [Example 140, 4-methoxy-N-(2-(4-morpholinophenyl)-2-oxoethyl)benzamide], the “In vivo relative invation” value in assay [1] came to 1.553. In assay [2], the fold induction at 1 µM was 1.15.

Take `Cc1cccc(C(=O)NCC(=O)c2ccc(N3CCOCC3)cc2)c1` [Example 141, 3-methyl-N-(2-(4-morpholinophenyl)-2-oxoethyl)benzamide]: in assay [1], the “In vivo relative invation” value was found to be 1.393. Further, the fold induction at 1 µM in assay [2] was 1.06.

Take `CCC(=O)NCC(=O)c1ccc(N2CCOCC2)cc1` [Example 142, N-(2-(4-morpholinophenyl)-2-oxoethyl)propionamide]: the “In vivo relative invation” value in assay [1] is on record as 1.8. For the same compound, the fold induction at 1 µM in assay [2] was 1.12.

On to `O=C(CNC(=O)C1CC1)c1ccc(N2CCOCC2)cc1` [Example 143, N-(2-(4-morpholinophenyl)-2-oxoethyl)cyclopropanecarboxamide], for which, in assay [1], the “In vivo relative invation” value is 0.8028. In assay [2], the fold induction at 1 µM was 1.16.

Turning to `O=C(CNC(=O)C1CCC1)c1ccc(N2CCOCC2)cc1` [Example 144, N-(2-(4-morpholinophenyl)-2-oxoethyl)cyclobutanecarboxamide], the “In vivo relative invation” value in assay [1] was 1.284. Further, in assay [2], the fold induction at 1 µM stood at 1.08.

On to `CCCCC(=O)NCC(=O)c1ccc(N2CCOCC2)cc1` [Example 145, N-(2-(4-morpholinophenyl)-2-oxoethyl)pentanamide], for which, in assay [1], the “In vivo relative invation” value is 1.433. Moreover, the fold induction at 1 µM in assay [2] was 1.1.

On to `O=C(CNS(=O)(=O)c1ccc(F)cc1)c1ccc(N2CCOCC2)cc1` [Example 146, 4-fluoro-N-(2-(4-morpholinophenyl)-2-oxoethyl)benzenesulfonamide], for which the “In vivo relative invation” value in assay [1] is reported as 0.7474. The fold induction at 1 µM in assay [2] was 1.16.

With `O=C(CNS(=O)(=O)c1ccc(Cl)cc1)c1ccc(N2CCOCC2)cc1` [Example 147, 4-chloro-N-(2-(4-morpholinophenyl)-2-oxoethyl)benzenesulfonamide], the “In vivo relative invation” value in assay [1] turned out to be 0.9524. Moreover, in assay [2], the fold induction at 1 µM stood at 1.1.

Take `O=C(CNS(=O)(=O)c1ccccc1)c1ccc(N2CCOCC2)cc1` [Example 148, N-(2-(4-morpholinophenyl)-2-oxoethyl)benzenesulfonamide]: the “In vivo relative invation” value in assay [1] came to 1.844. Besides, the fold induction at 1 µM in assay [2] turned out to be 1.44.

In the case of `O=C(CNS(=O)(=O)Cc1ccccc1)c1ccc(N2CCOCC2)cc1` [Example 149, N-(2-(4-morpholinophenyl)-2-oxoethyl)-1-phenylmethanesulfonamide], the “In vivo relative invation” value in assay [1] worked out at 1.261. The fold induction at 1 µM in assay [2] was determined as 1.07.

Take `COc1ccc(S(=O)(=O)NCC(=O)c2ccc(N3CCOCC3)cc2)cc1` [Example 150, 4-methoxy-N-(2-(4-morpholinophenyl)-2-oxoethyl)benzenesulfonamide]: the “In vivo relative invation” value in assay [1] turned out to be 1.071. Besides, in assay [2], the fold induction at 1 µM came out at 1.14.

As to `O=C(CNC(=O)c1ccccc1OC1CCN(C(=O)c2ccc(Cl)cc2)CC1)c1ccccc1` [Example 151, 2-((1-(4-chlorobenzoyl)piperidin-4-yl)oxy)-N-(2-oxo-2-phenylethyl)benzamide], the “In vivo relative invation” value in assay [1] came to 1.212. The fold induction at 1 µM in assay [2] was 1.05.

With `CC(Oc1ccccc1)C(=O)N1CCC(Oc2ccccc2C(=O)NCC(=O)c2ccccc2)CC1` (stereo not shown) [Example 152, N-(2-oxo-2-phenylethyl)-2-((1-(2-phenoxypropanoyl)piperidin-4-yl)oxy)benzamide], in assay [1], the “In vivo relative invation” value is 1.16. Further, the fold induction at 1 µM in assay [2] stood at 1.08.

For the compound `O=C(CNC(=O)c1ccccc1OC1CCN(C(=O)c2ccccc2F)CC1)c1ccccc1` [Example 153, 2-((1-(2-fluorobenzoyl)piperidin-4-yl)oxy)-N-(2-oxo-2-phenylethyl)benzamide], in assay [1], the “In vivo relative invation” value was 1.095. The fold induction at 1 µM in assay [2] amounted to 1.05.

`O=C(CNC(=O)c1ccccc1OC1CCN(C(=O)c2ccc(F)cc2)CC1)c1ccccc1` [Example 154, 2-((1-(4-fluorobenzoyl)piperidin-4-yl)oxy)-N-(2-oxo-2-phenylethyl)benzamide]: the “In vivo relative invation” value in assay [1] stood at 1.173. Also, the fold induction at 1 µM in assay [2] was 1.05.

For `O=C(CNC(=O)c1ccccc1OC1CCN(C(=O)c2ccco2)CC1)c1ccccc1` [Example 155, 2-((1-(furan-2-carbonyl)piperidin-4-yl)oxy)-N-(2-oxo-2-phenylethyl)benzamide], the “In vivo relative invation” value in assay [1] was 1.151. Further, the fold induction at 1 µM in assay [2] is 0.99.

Turning to `O=C(CNC(=O)c1ccccc1OC1CCN(C(=O)c2ccccc2Cl)CC1)c1ccccc1` [Example 156, 2-((1-(2-chlorobenzoyl)piperidin-4-yl)oxy)-N-(2-oxo-2-phenylethyl)benzamide], the “In vivo relative invation” value in assay [1] was found to be 1.158. Moreover, in assay [2], the fold induction at 1 µM worked out at 0.99.

On to `O=C(CNC(=O)c1ccccc1OC1CCN(C(=O)c2cccc(Cl)c2)CC1)c1ccccc1` [Example 157, 2-((1-(3-chlorobenzoyl)piperidin-4-yl)oxy)-N-(2-oxo-2-phenylethyl)benzamide], for which, in assay [1], the “In vivo relative invation” value was 1.089. Also, the fold induction at 1 µM in assay [2] turned out to be 1.05.

On to `C/C=C/C(=O)N1CCC(Oc2ccccc2C(=O)NCC(=O)c2ccccc2)CC1` [Example 158, (E)-2-((1-(but-2-enoyl)piperidin-4-yl)oxy)-N-(2-oxo-2-phenylethyl)benzamide], for which the “In vivo relative invation” value in assay [1] worked out at 1.171. Also, the fold induction at 1 µM in assay [2] worked out at 1.

For `O=C(CNC(=O)c1ccccc1OC1CCN(C(=O)CCc2ccccc2)CC1)c1ccccc1` [Example 159, N-(2-oxo-2-phenylethyl)-2-((1-(3-phenylpropanoyl)piperidin-4-yl)oxy)benzamide], in assay [1], the “In vivo relative invation” value is on record as 1.059. Besides, in assay [2], the fold induction at 1 µM came out at 0.99.

On to `C=CC(=O)N1CCC(Oc2ccccc2C(=O)NCC(=O)c2ccccc2)CC1` [Example 160, 2-((1-acryloylpiperidin-4-yl)oxy)-N-(2-oxo-2-phenylethyl)benz amide], for which, in assay [1], the “In vivo relative invation” value came to 1.067. Further, the fold induction at 1 µM in assay [2] is 1.05.

For the compound `Cc1ccccc1C(=O)N1CCC(Oc2ccccc2C(=O)NCC(=O)c2ccccc2)CC1` [Example 161, 2-((1-(2-methylbenzoyl)piperidin-4-yl)oxy)-N-(2-oxo-2-phenylethyl)benzamide], the “In vivo relative invation” value in assay [1] is listed as 1.121. In assay [2], the fold induction at 1 µM is 0.95.

In the case of `COc1ccccc1C(=O)N1CCC(Oc2ccccc2C(=O)NCC(=O)c2ccccc2)CC1` [Example 162, 2-((1-(2-methoxybenzoyl)piperidin-4-yl)oxy)-N-(2-oxo-2-phenylethyl)benzamide], the “In vivo relative invation” value in assay [1] turned out to be 1.043. Also, the fold induction at 1 µM in assay [2] was 0.99.

Turning to `Cc1cccc(C(=O)N2CCC(Oc3ccccc3C(=O)NCC(=O)c3ccccc3)CC2)c1` [Example 163, 2-((1-(3-methylbenzoyl)piperidin-4-yl)oxy)-N-(2-oxo-2-phenylethyl)benzamide], the “In vivo relative invation” value in assay [1] is 1.163. The fold induction at 1 µM in assay [2] was found to be 1.1.

Consider `CCC(=O)N1CCC(Oc2ccccc2C(=O)NCC(=O)c2ccccc2)CC1` [Example 164, N-(2-oxo-2-phenylethyl)-2-((1-propionylpiperidin-4-yl)oxy)benzamide], for which, in assay [1], the “In vivo relative invation” value stood at 1.088. Moreover, in assay [2], the fold induction at 1 µM is 0.98.

Consider `O=C(CNC(=O)c1ccccc1OC1CCN(C(=O)C2CCCCC2)CC1)c1ccccc1` [Example 165, 2-((1-(cyclohexanecarbonyl)piperidin-4-yl)oxy)-N-(2-oxo-2-phenylethyl)benzamide], for which the “In vivo relative invation” value in assay [1] was determined as 1.133. Moreover, in assay [2], the fold induction at 1 µM was 1.07.
